Data on seven compounds can be found in ChEMBL document CHEMBL1201862, “PubChem BioAssay data set” (2004).

Calls of active or inactive are those of the source.

One test relates to P388/ADR. Briefly: cells. Format: functional. The following applies: Mus musculus.
Another test relates to SN12K1. Description: cells. The format is functional. Particulars: Homo sapiens.
For a further test, the system named is P388. Description: cells. The format is functional. The following applies: Mus musculus.
The target in test [1] is T1, Caspase-3 (Homo sapiens, UniProt P42574).
T1 sequence (P42574 whole entry): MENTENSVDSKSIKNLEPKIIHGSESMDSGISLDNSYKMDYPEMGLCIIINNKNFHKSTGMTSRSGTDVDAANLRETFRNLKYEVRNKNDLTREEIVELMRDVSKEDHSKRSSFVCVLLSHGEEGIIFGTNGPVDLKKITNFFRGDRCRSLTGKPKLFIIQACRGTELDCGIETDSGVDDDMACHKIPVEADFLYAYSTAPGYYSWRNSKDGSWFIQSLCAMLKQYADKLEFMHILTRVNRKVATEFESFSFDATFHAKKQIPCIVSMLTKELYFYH
Briefly: caspase-3 inhibitors as off-family protease, SAR follow-up, selectivity assay for SENP protease inhibitor project, biochemical, luminescence, set 2 (AID 588599). The format is functional.

Test [2] concerns the target T2, Sentrin-specific protease 8 (Homo sapiens, UniProt Q96LD8).
T2 sequence (Q96LD8 whole entry): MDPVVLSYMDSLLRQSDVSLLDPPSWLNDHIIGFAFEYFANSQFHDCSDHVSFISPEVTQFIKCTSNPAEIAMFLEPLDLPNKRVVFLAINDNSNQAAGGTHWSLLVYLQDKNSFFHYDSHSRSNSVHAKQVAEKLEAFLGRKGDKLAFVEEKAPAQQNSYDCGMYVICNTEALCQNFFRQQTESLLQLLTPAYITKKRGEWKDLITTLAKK
Description: SENP8 protease inhibitors, SAR follow-up, biochemical, luminescence, set 2 (AID 588601). The format is functional.

Test [3] deals with T3, Sentrin-specific protease 7 (Homo sapiens, UniProt Q9BQF6).
T3 sequence (Q9BQF6 whole entry): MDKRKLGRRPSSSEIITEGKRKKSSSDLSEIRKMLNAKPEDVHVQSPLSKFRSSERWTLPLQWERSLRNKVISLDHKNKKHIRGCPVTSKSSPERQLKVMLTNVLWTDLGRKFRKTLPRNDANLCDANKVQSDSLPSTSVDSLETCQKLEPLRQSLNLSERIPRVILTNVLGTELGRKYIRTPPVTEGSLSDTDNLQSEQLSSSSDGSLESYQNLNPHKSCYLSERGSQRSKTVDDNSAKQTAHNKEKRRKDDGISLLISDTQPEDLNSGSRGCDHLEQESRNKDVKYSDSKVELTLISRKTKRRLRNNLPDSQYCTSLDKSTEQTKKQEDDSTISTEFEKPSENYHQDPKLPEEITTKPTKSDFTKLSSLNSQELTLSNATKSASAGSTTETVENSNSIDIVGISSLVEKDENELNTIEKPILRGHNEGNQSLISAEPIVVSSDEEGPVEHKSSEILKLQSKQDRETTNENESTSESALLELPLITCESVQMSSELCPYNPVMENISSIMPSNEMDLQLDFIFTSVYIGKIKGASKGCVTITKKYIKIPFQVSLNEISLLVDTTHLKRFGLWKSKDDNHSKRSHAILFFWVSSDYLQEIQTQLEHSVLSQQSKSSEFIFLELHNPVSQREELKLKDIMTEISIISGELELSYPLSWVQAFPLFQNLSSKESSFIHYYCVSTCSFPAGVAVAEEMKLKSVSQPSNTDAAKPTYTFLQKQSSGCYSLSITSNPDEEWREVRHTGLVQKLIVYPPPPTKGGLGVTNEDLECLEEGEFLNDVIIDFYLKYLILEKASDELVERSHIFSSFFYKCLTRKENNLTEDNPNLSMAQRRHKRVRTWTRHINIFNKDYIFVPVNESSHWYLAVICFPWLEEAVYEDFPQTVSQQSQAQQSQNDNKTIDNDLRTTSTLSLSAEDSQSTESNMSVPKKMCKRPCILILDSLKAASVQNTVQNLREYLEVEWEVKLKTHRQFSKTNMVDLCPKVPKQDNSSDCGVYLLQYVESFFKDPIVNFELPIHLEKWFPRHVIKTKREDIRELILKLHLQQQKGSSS
Briefly: SENP7 protease inhibitors, SAR follow-up, biochemical, luminescence, set 2 (AID 588600). The format is functional.

The target of test [4] is T4, Sentrin-specific protease 6 (Homo sapiens, UniProt Q9GZR1).
T4 sequence (Q9GZR1 whole entry): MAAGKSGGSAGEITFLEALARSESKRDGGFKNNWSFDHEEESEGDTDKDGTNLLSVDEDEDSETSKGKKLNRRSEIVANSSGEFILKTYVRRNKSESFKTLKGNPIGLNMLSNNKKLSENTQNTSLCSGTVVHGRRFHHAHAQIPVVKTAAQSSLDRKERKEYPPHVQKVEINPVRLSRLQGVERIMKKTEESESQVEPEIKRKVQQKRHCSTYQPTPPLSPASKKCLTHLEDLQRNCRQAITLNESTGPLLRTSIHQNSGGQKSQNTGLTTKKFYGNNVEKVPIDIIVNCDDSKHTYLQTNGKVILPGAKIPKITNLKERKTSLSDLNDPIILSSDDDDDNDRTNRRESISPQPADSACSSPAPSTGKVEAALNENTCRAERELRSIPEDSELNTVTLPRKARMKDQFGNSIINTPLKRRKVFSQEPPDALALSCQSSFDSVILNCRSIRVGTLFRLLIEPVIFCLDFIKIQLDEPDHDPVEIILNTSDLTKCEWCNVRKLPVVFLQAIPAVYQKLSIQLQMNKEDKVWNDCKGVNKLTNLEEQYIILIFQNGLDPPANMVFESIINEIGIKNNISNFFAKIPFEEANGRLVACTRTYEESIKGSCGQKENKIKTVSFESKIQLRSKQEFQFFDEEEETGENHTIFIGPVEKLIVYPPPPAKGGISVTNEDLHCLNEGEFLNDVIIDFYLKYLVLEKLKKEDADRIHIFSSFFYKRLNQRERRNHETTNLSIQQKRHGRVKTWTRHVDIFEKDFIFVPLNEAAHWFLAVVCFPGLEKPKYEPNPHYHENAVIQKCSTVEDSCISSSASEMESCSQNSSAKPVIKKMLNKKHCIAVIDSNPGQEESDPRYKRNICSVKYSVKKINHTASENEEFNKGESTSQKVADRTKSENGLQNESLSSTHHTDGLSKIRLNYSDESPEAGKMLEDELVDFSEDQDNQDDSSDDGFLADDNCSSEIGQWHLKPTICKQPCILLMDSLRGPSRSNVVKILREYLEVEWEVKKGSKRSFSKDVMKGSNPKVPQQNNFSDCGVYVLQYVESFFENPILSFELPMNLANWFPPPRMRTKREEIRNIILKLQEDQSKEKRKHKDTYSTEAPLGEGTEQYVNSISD
Description: SENP6 protease inhibitors, SAR follow-up, biochemical, luminescence, set 2 (AID 588598). The format is functional.

The target in the next test is Aurora kinase A (Homo sapiens, UniProt O14965). Format: functional.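 Note: value from the Navigating the Kinome kinase panel profiling, panel entry STK6.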
The target of a further test is Aurora kinase B (Homo sapiens, UniProt Q96GD4). Format: functional.
Test [5] in a line: inhibitors of intracellular T. cruzi replication, confirmation, NIH3T3 host cells, beta-gal luminescence (AID 2044).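 Note: intracellular parasites grown in NIH/3T3 mouse fibroblasts as host cells; luminescent beta-galactosidase reporter signal from transgenic T. cruzi replicating inside host cells; inhibitors lower the luminescence signal.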 The format is functional, cell-based.
Test [6] in a line: cytotoxicity toward NIH3T3 fibroblasts, dose response, counter-screen, cell-based, ATP luminescence, mouse fibroblasts (AID 2010).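 Note: cells exposed to compound for about 90 hours before reading.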 The format is functional. Background: A counterscreen serves to expose hits that act by an unwanted route or on another target.
Test [7] deals with T2, Sentrin-specific protease 8. Description: SENP8 protease inhibitors, SAR follow-up, biochemical, luminescence (AID 504501). Format: functional.
The target of test [8] is T1, Caspase-3. Description: SAR Analysis of small molecule inhibitors of Sentrin-specific proteases (SENPs) using a Caspase-3 Selectivity assay. [Related pubchem assays (depositor defined):AID2540, AID2599, AID434973, AID489001]. Format: functional.
Test [9] deals with T4, Sentrin-specific protease 6. Description: SAR Analysis of small molecule inhibitors of Sentrin-specific protease 6 (SENP6) using a Luminescent assay. [Related pubchem assays (depositor defined):AID2582, AID2599]. The format is functional.
Test [10] deals with T3, Sentrin-specific protease 7. Description: SENP7 protease inhibitors, SAR follow-up, biochemical, luminescence (AID 504497). The format is functional.
Test [11] concerns the target T5, Apoptotic protease-activating factor 1 (Homo sapiens, UniProt O14727).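 Note: caspase-3 cleavage of fluorogenic Rh110 DEVD substrate downstream of apoptosome activation.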
T5 sequence (O14727 whole entry): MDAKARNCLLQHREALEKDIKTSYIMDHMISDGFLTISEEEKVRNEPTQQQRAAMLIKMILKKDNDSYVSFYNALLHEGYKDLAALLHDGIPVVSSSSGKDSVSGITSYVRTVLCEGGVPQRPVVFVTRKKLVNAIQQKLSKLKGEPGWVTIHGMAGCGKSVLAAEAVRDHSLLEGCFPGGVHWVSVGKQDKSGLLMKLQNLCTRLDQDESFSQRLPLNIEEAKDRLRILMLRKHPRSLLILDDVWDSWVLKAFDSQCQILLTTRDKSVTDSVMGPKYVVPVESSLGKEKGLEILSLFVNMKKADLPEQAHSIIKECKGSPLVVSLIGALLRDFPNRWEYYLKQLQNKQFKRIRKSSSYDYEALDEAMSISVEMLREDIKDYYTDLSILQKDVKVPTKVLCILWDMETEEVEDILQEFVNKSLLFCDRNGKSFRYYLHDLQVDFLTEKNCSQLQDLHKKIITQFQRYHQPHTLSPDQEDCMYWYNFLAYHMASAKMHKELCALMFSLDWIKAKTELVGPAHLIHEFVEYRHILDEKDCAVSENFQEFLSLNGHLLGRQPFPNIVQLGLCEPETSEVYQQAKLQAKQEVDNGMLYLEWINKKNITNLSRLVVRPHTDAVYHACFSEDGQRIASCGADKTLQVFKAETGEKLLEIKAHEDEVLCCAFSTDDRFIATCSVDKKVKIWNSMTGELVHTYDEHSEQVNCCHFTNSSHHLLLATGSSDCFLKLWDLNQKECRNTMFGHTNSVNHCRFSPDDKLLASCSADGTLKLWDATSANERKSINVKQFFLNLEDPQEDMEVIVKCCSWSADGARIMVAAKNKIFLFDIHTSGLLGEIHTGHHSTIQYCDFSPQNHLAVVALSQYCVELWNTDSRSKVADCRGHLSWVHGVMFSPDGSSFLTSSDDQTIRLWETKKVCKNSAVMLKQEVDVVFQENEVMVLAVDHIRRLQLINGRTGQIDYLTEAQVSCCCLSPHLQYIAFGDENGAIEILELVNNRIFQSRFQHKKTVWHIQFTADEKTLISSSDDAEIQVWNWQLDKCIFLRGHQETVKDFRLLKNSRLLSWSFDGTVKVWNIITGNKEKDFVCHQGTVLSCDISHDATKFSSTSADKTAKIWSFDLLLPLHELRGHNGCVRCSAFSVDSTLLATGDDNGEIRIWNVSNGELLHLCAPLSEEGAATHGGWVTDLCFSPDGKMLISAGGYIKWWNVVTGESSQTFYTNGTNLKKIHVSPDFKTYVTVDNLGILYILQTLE
Description: SAR analysis of small molecule Activators of Apaf-1 in a Fluorescent assay. Format: functional. The following applies: read-out: EC50_Mean.

What is called GI50 is the concentration giving 50% growth inhibition. A word on the IC50: it is the concentration that inhibits the measured activity by half. As usually defined, the Ki is the equilibrium dissociation constant of an inhibitor or competing ligand from its target.

Chain of Aurora kinase B (Q96GD4 whole entry): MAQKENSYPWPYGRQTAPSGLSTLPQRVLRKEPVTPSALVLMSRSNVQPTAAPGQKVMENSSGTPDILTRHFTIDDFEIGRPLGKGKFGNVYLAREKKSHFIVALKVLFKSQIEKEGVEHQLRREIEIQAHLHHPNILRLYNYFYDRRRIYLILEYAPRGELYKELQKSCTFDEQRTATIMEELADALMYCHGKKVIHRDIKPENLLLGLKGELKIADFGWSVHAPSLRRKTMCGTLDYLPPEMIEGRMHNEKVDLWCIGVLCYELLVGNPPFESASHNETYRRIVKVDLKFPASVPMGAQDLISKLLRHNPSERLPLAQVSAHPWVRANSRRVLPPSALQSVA
Chain of Aurora kinase A (O14965 whole entry): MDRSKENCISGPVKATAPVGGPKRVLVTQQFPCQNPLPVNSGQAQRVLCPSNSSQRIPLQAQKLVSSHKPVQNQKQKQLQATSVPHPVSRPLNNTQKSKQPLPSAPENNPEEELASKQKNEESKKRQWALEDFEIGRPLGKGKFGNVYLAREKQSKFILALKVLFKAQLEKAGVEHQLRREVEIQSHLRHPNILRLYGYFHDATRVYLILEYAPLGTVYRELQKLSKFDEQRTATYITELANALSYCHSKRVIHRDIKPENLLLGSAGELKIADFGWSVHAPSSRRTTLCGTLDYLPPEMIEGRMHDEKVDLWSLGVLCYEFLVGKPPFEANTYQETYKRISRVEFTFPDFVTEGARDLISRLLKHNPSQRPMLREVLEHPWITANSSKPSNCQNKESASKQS

`COC(=O)C[C@](O)(CCC(C)(C)O)C(=O)O[C@@H]1C(OC)=C[C@]23CCCN2CCc2cc4c(cc2[C@H]13)OCO4` [HARRINGTONINE]: the figures for the GI50 with P388/ADR, in the test with SN12K1 and in the test on P388 were 0.738 µM (active), 0.0661 µM (active) and 0.0252 µM (active), respectively.
For `COC1OCC(O)C(NC(=O)N(C)N=O)C1O` (configuration not stated), in that order: > 100 µM (inactive), > 100 µM (inactive) and > 100 µM (inactive).
Regarding `Cc1ccc(N2CC(NC(=O)C(=O)c3c(C)[nH]c4ccccc34)CC2=O)cc1` (configuration not stated), the IC50 (at Caspase-3 [1]; in [2]; in test [3]; in test [4]) was > 99 µM (inactive) in each case.
On to `COCCOC1CCC(n2nc(-c3ccc(Nc4nc5cc(Br)cc(C)c5o4)cc3)c3c(N)ncnc32)CC1` (configuration not stated), for which the Ki is 0.00398 µM (active) on Aurora kinase A and 0.00316 µM (active) at Aurora kinase B.
Regarding `O=C(Nc1nc2ccc(Cl)cc2s1)C1CC1`, the EC50 in [5] is 0.119 µM (active); in test [6], > 16 µM (not active). For the same compound, the IC50 in test [7] is > 99 µM (inactive); at Caspase-3 [1], 28.9 µM (active); in [2] it was 5.97 µM (active); on Caspase-3 [8], 25 µM (active); in [3], 7.46 µM (active); in test [9], > 99 µM (inactive). Besides, the results for the IC50 in test [4] and in [10] were 24.6 µM (active) and 5.9 µM (active), respectively.
For the compound `CC(C)(C)c1ccc(C(=O)NC(CCc2ccccc2)CC(=O)O)cc1` (configuration not stated), in [11], the EC50 was > 100 µM (inactive).
In the case of `CCCCc1ccc2nc(NC(=O)c3sccc3C)sc2c1`, the IC50 in test [7] is 0.672 µM (active); on Caspase-3 [8], 0.541 µM (active); in test [9] it was 0.742 µM (active); in [10], 0.854 µM (active).
